Where a name gives a salt, the structure may show the parent alone.

For two compounds, ED50 results are on record in patent publication EP0223385B1, “8-Azabicyclo[3,2,1]octane and 9-azabicyclo[3,3,1]nonane derivatives” (BEECHAM GROUP PLC, priority 1985, dated 1987).

The test system of the experiment is von Bezold-Jarisch reflex evoked by 5-HT. The experiment is described as follows: Antagonism of the von Bezold-Jarisch reflex evoked by 5-HT in the anaesthetised rat. Type of experiment: in vivo. As to conditions: iv, anaesthetised male rats, compounds given intravenously, dose reducing the 5-HT-evoked (usually 6µg/kg i.v.) heart rate response to 50% of control, read-out: ED₅₀. Here is the method: The compounds were evaluated for antagonism of the von Bezold-Jarisch reflex evoked by 5-HT in the anaesthetised rat according to the following method:
Male rats 250-350g, were anaesthetised with urethane (1.25g/kg intraperitoneally) and blood pressure and heart rate recorded as described by Fozard J.R. et al., J. Cardiovasc. Pharmacol. 2, 229-245 (1980). A submaximal dose of 5-HT (usually 6µg/kg) was given repeatedly by the intravenous route and changes in heart rate quantified. Compounds were given intravenously and the concentration required to reduce the 5 HT-evoked response to 50% of the control response (ED₅₀) was then determined.

In the case of `CN1[C@@H]2CC[C@H]1C[C@@H](OC(=O)c1nn(C)c3ccccc13)C2` [Compound 1, 1-Methyl-3-indazolecarboxylic acid (endo-8-methyl-8-azabicyclo[3,2,1]oct-3-yl)ester monohydrochloride], the ED50 was 1.4 µg/kg.

Turning to `CN1[C@@H]2CCC[C@H]1C[C@@H](NC(=O)c1nn(C)c3ccccc13)C2` [Compound 2, N-(Endo-9-methyl-9-azabicyclo[3,3,1]non-3-yl)-1-methylindazole-3-carboxamide monohydrochloride], the ED50 is 0.7 µg/kg.
